The subject of this experiment is GBM39 cells. The experiment in a line: MV growth kinetics (virus production, titration on Vero cells). In kind it is cell-based, human. The procedure: MV strains and virus propagation. Generation and characterization of MV strains expressing human iodide symporter (MV-NIS), human carcinoembryonic antigen (MV-CEA) and green fluorescent protein (MV-GFP) has been described elsewhere (see, e.g., Dingli et al. 2004 Blood 103:1641-1646; Peng et al. 2002 Cancer Res 62:4656-4662; Duprex et al. 1999 J Virol 73:9568-9575). Viruses were propagated on Vero cells and viral stocks were prepared by repeated freezing-thawing and stored frozen at −80° C. MV titers were determined in tissue culture infectious doses 50% (TCID50) per ml by titration on Vero cells described elsewhere (see, e.g., Iankov et al. 2009 Mol Ther 17:1395-1403). High grade purified viral stocks from supernatant released viruses were prepared as described elsewhere (see, e.g., Langfield et al. 2011 Methods Mol Biol 737:345-366).
MV growth kinetics. Growth kinetics of MV in primary GBM cells was determined by titration on Vero cells for the cell-associated virus at different time points post infection with MV-NIS. Briefly, the 4×10^5 cells were inoculated at a MOI of 0.1 with MV-NIS and incubated in 6-well cell culture plates (Falcon). […] Wells positive for syncytia were counted at 72 hours and virus titers were calculated as described above. […]

For the compound `N#CC[C@H](C1CCCC1)n1cc(-c2ncnc3[nH]ccc23)cn1` [Jakafi, Ruxolitinib], the “increase of MV-NIS virus production vs control” value (GBM39, 3 μM for 48 hours prior to infection, MV-NIS MOI 0.1, 96 hours) is roughly 1000 fold. Also, the “time of addition still sufficient to restore MV production” value (GBM39, 3 μM, MV MOI 0.1, virus production 48 hours post-infection) was “up to 12 hours post-infection”.
